Values joined by “and” are separate entries in the source; they are usually repeats but may differ in a detail not shown here. Equal entries are not always repeated.
Legend:
[1] = test system: C3-PMP22 transgenic mice (CMT1A); test: Sciatic nerve electrophysiology (EMG), CMT1A mouse study (50 mg/kg twice daily); format: in vivo; details: for Compound muscle action potential (Mean ± SEM) / Nerve conduction velocity (Mean ± SEM): CMT1A + AAT; for Amplitude, MEAN / Amplitude, individual mice / Conduction velocity, MEAN / Conduction velocity, individual mice / T1 distal, individual mice / T2 proximal, individual mice: CMT1A + hAAT
Text: As a murine model of CMT1A we used C3-PMP22 transgenic mice (B6.Cg-Tg(PMP22)C3Fbas/J, The Jackson Laboratory) which express three copies of a wild-type human peripheral myelin protein 22 (PMP22) gene (Verhamme, Camiel, et al. Journal of Neuropathology & Experimental Neurology 70.5 (2011): 386-398). Mice were housed in macrolon cages with filter hoods, in a continuously air-filtered room, thereby avoiding contamination. During experiments, paired animals were caged at a constant temperature with a day/night cycle of 12/12 hours. Animals were fed (control tap water and nutrition) ad libitum. Animal protocol is approved by the Animal Studies Committee of Languedoc Roussillon. This protocol and the laboratory procedures comply with French legislation, which implements the European Directives (Reference Number: D3417223, APAFIS #23920-2020020320279696 v3). Animal health was followed on a daily basis to ensure that only animals in good health enter the testing procedures and follow up the study.
Animals were split in 3 groups (wild-type control (subcutaneous 0.9% NaCl), CMT1A-vehicle (subcutaneous 0.9% NaCl), CMT1A-human alpha-1 antitrypsin (subcutaneous, twice daily, 50 mg/kg per injection)) of 3 mice each (3 weeks old males of 18±2.5 g at the beginning of study) and all went through the following protocol after 7 days of acclimation on site.
On the first and last day of treatment, the neuromuscular performance of animals was tested with a rotarod test, grip test and sciatic nerve electrophysiology test. After the last treatment at 8 weeks, these tests were repeated, and animals were sacrificed and the left sciatic nerve was sampled for histological evaluation of the number and size of […].
Sciatic nerve electrophysiology (EMG) provides sensitive and quantitative approach to measure compound muscle action potential and nerve conduction velocity amplitude in the animals and was done by stimulation of the sciatic nerve. Similar compound muscle action potential (CMAP) amplitudes were observed between groups at the baseline (6 weeks old).

CIDP mice = test: Von Frey test (paw withdrawal threshold), CIDP mouse model; format: in vivo; details: for Von Frey, paw withdrawal threshold (Mean ± SD): CIDP mice; for von Frey test, Paw withdrawal threshold, group MEAN: group mean of 4 animals; for von Frey test, Paw withdrawal threshold, Mean/animal: per animal; for von Frey test, Paw withdrawal threshold, Mean/animal / von Frey test, Paw withdrawal threshold, set 1 / von Frey test, Paw withdrawal threshold, set 2 / von Frey test, Paw withdrawal threshold, set 3: listed as hAAT; for von Frey test, Paw withdrawal threshold, set 1 / von Frey test, Paw withdrawal threshold, set 2 / von Frey test, Paw withdrawal threshold, set 3: raw data per animal
Description: (§1) C57BL/6 mice were received at 8 weeks of age and housed under controlled conditions for the duration of the study. Three groups of 4 animals each were assigned to the following subcutaneous treatments twice daily at 7:00 AM and 7:00 PM for 2 weeks, from 20 to 35 days after the start of disease induction: • Wild type (WT) mice receiving the vehicle, 0.9% NaCl (positive control) • CIDP mice receiving the vehicle, 0.9% NaCl (negative control) • CIDP mice receiving human AAT (AAT), 50 mg/kg per injection
Disease induction consisted in subcutaneous injection of mouse sciatic nerve homogenate in phosphate buffer saline (PBS)+Freund's adjuvant mixture at 10 mL/kg. For each treatment, 3 different body sites injections were performed. Control mice also received three subcutaneous injections of PBS+Freund's adjuvant at the same 3 different body sites.
On the first (Day 20) and last (Day 35) day of treatment, the neuromuscular and performance of animals was tested with a rotarod test, grip test and a sensory test using the Von Frey filament test, as well as sciatic nerve electrophysiology test. After the last treatment at Day 35, these tests were repeated, animals were sacrificed and the left sciatic nerve was sampled for histological evaluation of the number and size of […].

plasma TNFα = test: Plasma TNFα quantification, CIDP mouse model; format: in vivo; details: for Plasma TNFα concentration (Mean ± SD): CIDP mice; for TNFα conc: per animal, listed as hAAT
Description: as §1
(§2) On the day preceding disease induction (Day 1), on the first (Day 20) and on the last (Day 35) treatment day, animals were subjected to blood samplings for the determination of neurofilament light chain (NfL), tumour necrosing factor alpha (TNFα) and TMPRSS5 levels, as described in FIG. 20. In addition, plasma levels of AAT were evaluated on the last treatment day.

plasma TMPRSS5 = test: Plasma TMPRSS5, CIDP mouse model; format: in vivo; details: CIDP + AAT
Description: as §1, §2

[2] = test system: CMT1A mice B6.Cg-Tg(PMP22)C3Fbas/J; test: Sciatic nerve histology, CMT mice treated with AAT 180 mg/kg/day sc; format: in vivo, mouse
Text: Animals were received at 6 weeks of age and housed under controlled conditions for the duration of the study. The study comprised two groups of 8 transgenic mice (CMT mice) each and one group of 8 age matched wild type (WT) C57B16 mice, serving as positive control. Animals were assigned to the following subcutaneous treatments twice daily at 7:00 AM and 7:00 PM for 2 weeks, starting from 8 weeks and up to 10 weeks of age: • Wild-type (WT, no disease) mice receiving vehicle, 0.9% NaCl (positive control) • CMT1A mice receiving vehicle, 0.9% NaCl (negative control) • CMT1A mice receiving AAT at 90 mg/kg per injection (daily dose 180 mg/kg)
The efficacy parameters included: • neuromuscular performance (rotarod latency to fall and grip strength test), • sciatic nerve electrophysiology (CMAP amplitude and NCV) • cytokine (IL-6 and TNFα), as well as NfL analysis • sciatic nerve histology (number of axons and axonal diameter),

[3] = Day 20, before compound treatment
[4] = CMT1A + AAT 90 mg/kg sc twice daily
[5] = CMT mice, AAT 180 mg/kg daily dose
[6] = after 2 weeks treatment free period

alpha1-antitrypsin (AAT) protein
NCV compared to the vehicle treated group ([1]; CMT1A + AAT treated group, 8 weeks old): increase | Compound muscle action potential (Mean ± SEM) ([1]; 6 weeks old): 6.47 ± 0.30 mV | Nerve conduction velocity (Mean ± SEM) ([1]; 6 weeks old): 24.91 ± 4.13 m/s | Nerve conduction velocity (Mean ± SEM) ([1]; 8 weeks old): 20.89 ± 1.63 m/s | Compound muscle action potential (Mean ± SEM) ([1]; 8 weeks old, p < 0.05 vs CMT1A + vehicle): 5.63 ± 1.18 mV | Amplitude, MEAN ([1]; 6 weeks old (baseline)): 6.471 mV | Amplitude, individual mice ([1]; 6 weeks old (baseline)): 7.030 mV and 6.025 mV and 6.359 mV | Conduction velocity, MEAN ([1]; 6 weeks old (baseline)): 24.909 m/s | Conduction velocity, individual mice ([1]; 6 weeks old (baseline)): 31.277 m/s and 17.182 m/s and 26.268 m/s | T1 distal, individual mice ([1]; 6 weeks old (baseline)): 0.00202 s and 0.00207 s and 0.0016 s | T2 proximal, individual mice ([1]; 6 weeks old (baseline)): 0.0025 s and 0.00295 s and 0.00217 s | Amplitude, MEAN ([1]; 8 weeks old): 5.627 mV | Amplitude, individual mice ([1]; 8 weeks old): 3.799 mV and 5.260 mV and 7.822 mV | Conduction velocity, MEAN ([1]; 8 weeks old): 20.892 m/s | Conduction velocity, individual mice ([1]; 8 weeks old): 23.904 m/s and 18.310 m/s and 20.464 m/s | T1 distal, individual mice ([1]; 8 weeks old): 0.00251 s and 0.00236 s and 0.00228 s | T2 proximal, individual mice ([1]; 8 weeks old): 0.00313 s and 0.00318 s and 0.00302 s | EMG parameters compared to the control ([1]; CMT1A mice treated with AAT, 8 weeks old): improvement | threshold of paw withdrawal compared to the vehicle treated group (CIDP mice; CIDP + AAT 50 mg/kg sc twice daily, Day 35): increased | Von Frey, paw withdrawal threshold (Mean ± SD) (CIDP mice; Day 20 (baseline)): 3.16 ± 0.95 grams | Von Frey, paw withdrawal threshold (Mean ± SD) (CIDP mice; Day 35, AAT 50 mg/kg sc twice daily): 5.71 ± 0.41 grams | von Frey test, Paw withdrawal threshold, group MEAN (CIDP mice; Baseline (Day 20)): 3.16 grams | von Frey test, Paw withdrawal threshold, group MEAN (CIDP mice; Day 35): 5.80 grams | von Frey test, Paw withdrawal threshold, Mean/animal (CIDP mice; Baseline (Day 20)): 4.30 grams and 2.10 grams and 2.74 grams and 3.48 grams | von Frey test, Paw withdrawal threshold, Mean/animal (CIDP mice; Day 35): 5.60 grams and 5.24 grams and 6.21 grams and 6.14 grams | von Frey test, Paw withdrawal threshold, set 1 (CIDP mice; Baseline (Day 20)): 4.6 grams and 2.1 grams and 3.3 grams and 4.5 grams | von Frey test, Paw withdrawal threshold, set 2 (CIDP mice; Baseline (Day 20)): 2.4 grams and 1.8 grams and 2.1 grams and 2.2 grams | von Frey test, Paw withdrawal threshold, set 3 (CIDP mice; Baseline (Day 20)): 6.0 grams and 2.4 grams and 2.8 grams and 3.8 grams | von Frey test, Paw withdrawal threshold, set 1 (CIDP mice; Day 35): 5.3 grams and 5.9 grams and 7.7 grams and 5.1 grams | von Frey test, Paw withdrawal threshold, set 2 (CIDP mice; Day 35): 5.1 grams and 3.7 grams and 5.3 grams and 7.0 grams | von Frey test, Paw withdrawal threshold, set 3 (CIDP mice; Day 35): 6.4 grams and 6.1 grams and 5.7 grams and 6.3 grams | plasma TNFα concentration compared to the CIDP+vehicle treated group (plasma TNFα; CIDP + AAT, day 35): significant decrease | Plasma TNFα concentration (Mean ± SD) (plasma TNFα; Day 1): 138.46 ± 18.58 pg/mL | Plasma TNFα concentration (Mean ± SD) (plasma TNFα; Day 20): 1397.62 ± 330.96 pg/mL | Plasma TNFα concentration (Mean ± SD) (plasma TNFα; Day 35): 1046.73 ± 144.47 pg/mL | Plasma TNFα, Mean Diff., CIDP + vehicle vs. CIDP + hAAT (Bonferroni's multiple comparisons test) (plasma TNFα; [3]): −187.9 | Plasma TNFα, Significant?, CIDP + vehicle vs. CIDP + hAAT (Bonferroni's multiple comparisons test) (plasma TNFα; [3]): No | Plasma TNFα, Mean Diff., CIDP + vehicle vs. CIDP + hAAT (Bonferroni's multiple comparisons test) (plasma TNFα; Day 35): 385.1 | TNFα conc, group MEAN (plasma TNFα; Day 1): 138.46 pg/mL | TNFα conc, group MEAN (plasma TNFα; Day 20): 1397.62 pg/mL | TNFα conc, group MEAN (plasma TNFα; Day 35): 1046.73 pg/mL | TNFα conc (plasma TNFα; Day 1 (before model induction)): 125.451 pg/mL and 165.501 pg/mL and 135.780 pg/mL and 127.127 pg/mL | TNFα conc (plasma TNFα; Day 20 (before compound treatment)): 1705.849 pg/mL and 1029.281 pg/mL and 1208.445 pg/mL and 1646.907 pg/mL | TNFα conc (plasma TNFα; Day 35): 910.997 pg/mL and 1161.216 pg/mL and 933.130 pg/mL and 1181.571 pg/mL | plasma TMPRSS5 concentration compared to the vehicle group (plasma TMPRSS5): No statistically significant differences | Sciatic nerve histology, Axonal diameter (Mean ± SD) [2, 4]: 3.84 ± 0.25 μm | Sciatic nerve histology, Axons/100 μm2 (Mean ± SD) [2, 4]: 26.30 ± 2.00 | Sciatic nerve histology, g-ratio (Mean ± SD) [2, 4]: 0.62 ± 0.16 | axonal diameter relative to untreated CMT animals [2, 5]: increase | g-ratio relative to untreated CMT animals [2, 5]: decrease | number of axons in the treated animals [2, 6]: significantly larger | size of the myelin sheath in the treated animals [2, 6]: significantly larger

— US20260028390A1, “ALPHA1-ANTITRYPSIN FOR USE IN THE TREATMENT OF DISEASES OR DISORDERS OF THE NERVOUS SYSTEM SUCH AS CHRONIC INFLAMMATORY DEMYELINATING POLYNEUROPATHY” (Ageronix SA, priority 2022, published 2026)
